In patent US5952530A, “Separation processes” (Union Carbide Chemicals & Plastics Technology Corporation, priority 1998, dated 1999):
Read-outs that look alike come from different tables or passages of the source. Values belong to the compound of their own block, whether it stands above or below them.

Tests used:
[1] = Partition of polar organic molecules between hexane and acetonitrile; type: physicochemical; settings: hexane/acetonitrile equal volumes; GC; polar molecule wt%: propionaldehyde 7.5, butyraldehyde 5.2, valeraldehyde 5.5, 3-pentenenitrile 4.7
Method: Solutions were prepared containing equal volumes of hexane and acetonitrile. To each solution was added a polar organic molecule identified in Table L below. The mixture was vigorously shaken, then allowed to settle and phase separate. The two phases were then analyzed for content of polar molecule by GC. In Table L, the percent by weight of polar molecule added to the hexane/acetonitrile solvent mixture together with Kpartition is given for various polar molecules.

[2] = for Kpartition: hexane:acetonitrile (1:1) solvent system, summary table; for partition coefficient Kp: hexane/acetonitrile solvent system, examples, Tables A and B
[3] = Extraction of Texanol from rhodium/Ligand E catalyst: Kpartition and selectivity; type: physicochemical
Method: . To this mixture was added an equal volume of acetonitrile. The mixture was shaken for 30 minutes, then allowed to settle and phase separate for several hours. The two layers were then separated, and analyzed for content. The partition coefficient Kp of the catalyst is summarized in Table J below, together with the volume ratio of the two phases defined as Vratio=volume of the catalyst containing phase after extraction/volume of the extracting solution phase after extraction, and the selectivity of the extraction defined as Selectivity=Kpartition of catalyst/Kpartition organic material being separated from catalyst.
. […] The mixture was shaken for 30 minutes, then allowed to settle and phase separate over several hours. The two phases were then separated and analyzed for content. In Table K below, partition coefficient Kp of the catalyst and Texanol as well as the volume ratio of the two phases defined as Vratio=volume of the catalyst containing phase after extraction/volume of the extracting solution phase after extraction is summarized.

[4] = DMSO, Examples 18 (B 0.8 wt%, 223 ppm Rh), 19 (C 0.8 wt%, 222 ppm Rh), 21 (E 0.6 wt%, 136 ppm Rh)
[5] = polar solvent W: acetonitrile with 1 wt% water, Examples 24 (B 0.8 wt%, 223 ppm Rh), 25 (E 0.6 wt%, 120 ppm Rh)

Kpartition [1]: 9.2
Compound: CCC=O [propionaldehyde]

Compound: CC(C)(C)c1ccc(Op2oc3c(C(C)(C)C)cc(C(C)(C)C)cc3c3cc(C(C)(C)C)cc(C(C)(C)C)c3o2)c(C(C)(C)C)c1 [Ligand M]
Kpartition [2]: 25

Compound: CCN(CC)P(Oc1c(-c2cc(OC)cc(C(C)(C)C)c2OP(N(CC)CC)N(CC)CC)cc(OC)cc1C(C)(C)C)N(CC)CC [Ligand K]
partition coefficient Kp [2]: 5
Kpartition [2]: 5

Compound: CC(C)(C)CC(C)(C)c1cc(-c2cc(C(C)(C)CC(C)(C)C)cc(C(C)(C)CC(C)(C)C)c2Op2oc3ccc(C(C)(C)C)cc3c3cc(C(C)(C)C)ccc3o2)c(Op2oc3ccc(C(C)(C)C)cc3c3cc(C(C)(C)C)ccc3o2)c(C(C)(C)CC(C)(C)C)c1 [Ligand E]
Kpartition [2]: 502
Kpartition [4]: 79
Kpartition (DMSO, Ligand 0.6 wt%, rhodium 120 ppm, Example 23): 128
Kpartition (acetonitrile, Ligand 0.6 wt%, rhodium 120 ppm, Example 22): 250
Kpartition [5]: 352

Compound: CC(C)(C)c1ccc(OP(Oc2ccccc2-c2ccccc2OP(Oc2ccc(C(C)(C)C)cc2C(C)(C)C)Oc2ccc(C(C)(C)C)cc2C(C)(C)C)Oc2ccc(C(C)(C)C)cc2C(C)(C)C)c(C(C)(C)C)c1 [Ligand F]
Kpartition [2]: 100

Compound: CCCC=O [butyraldehyde]
Kpartition [1]: 3.2

Compound: CC(C)(C)c1cc(-c2cc(C(C)(C)C)cc(C(C)(C)C)c2Op2oc3ccc(C(C)(C)C)cc3c3cc(C(C)(C)C)ccc3o2)c(Op2oc3ccc(C(C)(C)C)cc3c3cc(C(C)(C)C)ccc3o2)c(C(C)(C)C)c1 [Ligand B]
Kpartition [2]: 26
Kpartition [4]: 124
Kpartition (acetonitrile, Ligand 0.8 wt%, rhodium 223 ppm, Example 17): 19
Kpartition (hexane/acetonitrile, Ligand 1.5 wt%, rhodium 318 ppm, Example 15): 34
Kpartition [5]: 27

Compound: CC(C)(C)c1cc(-c2cc(C(C)(C)C)cc(C(C)(C)C)c2Op2oc3ccccc3c3ccccc3o2)c(Op2oc3ccccc3c3ccccc3o2)c(C(C)(C)C)c1 [Ligand I]
Kpartition [2]: 2.3

Compound: CCC(C)(C)c1cc(-c2cc(C(C)(C)CC)cc(C(C)(C)CC)c2Op2oc3ccccc3c3ccccc3o2)c(Op2oc3ccccc3c3ccccc3o2)c(C(C)(C)CC)c1 [Ligand H]
Kpartition [2]: 6

Compound: c1ccc(-c2ccccc2Op2oc3ccccc3c3ccccc3o2)c(Op2oc3ccccc3c3ccccc3o2)c1 [Ligand A, reference compound]
partitioning behavior ([2]; hexane/acetonitrile, Comparative Example A, control): non-selective for the hydrocarbon phase
Kpartition [2]: 0.04

Compound: CCCCCC(C)(C)c1cc(-c2cc(C(C)(C)CCCCC)cc(C(C)(C)CCCCC)c2Op2oc3ccccc3c3ccccc3o2)c(Op2oc3ccccc3c3ccccc3o2)c(C(C)(C)CCCCC)c1 [Ligand D]
Kpartition [2]: 116

Compound: CC(C)(C)CC(C)(C)c1cc(-c2cc(C(C)(C)CC(C)(C)C)cc(C(C)(C)CC(C)(C)C)c2Op2oc3ccccc3c3ccccc3o2)c(Op2oc3ccccc3c3ccccc3o2)c(C(C)(C)CC(C)(C)C)c1 [Ligand C]
Kpartition Ligand C ([2]; hexane/DMSO, Example 12): 68
Kpartition Ligand C ([2]; hexane/glutaronitrile, Example 13): 20
Kpartition [2]: 38
Kpartition [4]: 42
Kpartition (Glutaronitrile, Ligand 0.8 wt%, rhodium 222 ppm, Example 20): 43
Kpartition (hexane/acetonitrile, Ligand 0.8 wt%, rhodium 222 ppm, Example 16): 28

Kpartition [1]: 2.0
Compound: CCCCC=O [valeraldehyde]

Compound: CC=CCC#N [3-pentenenitrile]
Kpartition [1]: 50

Compound: CC(C)C(=O)OCC(C)(C)C(O)C(C)C (stereo not shown) [Texanol]
Kpartition Texanol ([3]; hexane/acetonitrile, Vratio 5.6, Example 40): 0.4
Kpartition Texanol ([3]; toluene vs acetonitrile containing water 4/1, Example 41): 96

Compound: CCCCCCCCP(CCCCCCCC)CCCCCCCC [Ligand J]
partition coefficient Kp [2]: > 100
Kpartition [2]: > 100

Compound: CC1(c2cc(-c3cc(C4(C)CCCCC4)cc(C4(C)CCCCC4)c3Op3oc4ccccc4c4ccccc4o3)c(Op3oc4ccccc4c4ccccc4o3)c(C3(C)CCCCC3)c2)CCCCC1 [Ligand G]
Kpartition [2]: 19
